For ten compounds, IC50 results are on record in US9555050B2 (BIOGEN MA INC., priority 2012, dated 2017).

Molecules are shown by their SMILES.

This experiment deals with T1, Human ATX protein (Homo sapiens, UniProt Q13822).
T1 construct: made in house
In words: ATX biochemical FRET assay with FS-3 substrate. The note with it: FS-3 substrate 2 μM, ATX 1.0 μg/mL, 30 min preincubation, 2 hours at room temperature. In a few lines: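 In-house purified human ATX (1.0 μg/mL final) pre-incubated 30 min at room temperature with compound in Tris buffer pH 7.4 with salts and 1 mg/mL fatty acid-free BSA. FS-3 substrate (2 μM final) then hydrolysed 2 h at room temperature, protected from light; fluorescence read at 485/538 nm.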
`O=C(O)[C@@H]1CCCN(Cc2ccc3c(C(F)(F)F)c(O[C@H]4CC[C@@H](C(F)(F)F)CC4)ccc3c2)C1` [Example 24, (R)-1-((5-(trifluoromethyl)-6-((cis)-4-(trifluoromethyl)cyclohexyloxy)naphthalen-2-yl)methyl)piperidine-3-carboxylic acid]: the IC50 was not above 500 nM.
Take `CC[C@@H](c1ccc2c(C(F)(F)F)c(O[C@H]3CC[C@@H](C)CC3)ccc2c1)N1CCC[C@H](CC(=O)O)C1` [Example 59, 2-((3R)-1-((S)-1-(6-((cis-4-Methylcyclohexyl)oxy)-5-(trifluoromethyl)naphthalen-2-yl)propyl)piperidin-3-yl)acetic acid]: the IC50 is not above 100 nM.
The compound `C[C@H]1CC[C@@H](Oc2ccc3cc(CN4CCCC(CC(=O)O)C4)ccc3c2C(F)(F)F)CC1` (stereo partly drawn) [Example 9, 2-(1-((6-((cis-4-methylcyclohexyl)oxy)-5-(trifluoromethyl)naphthalen-2-yl)methyl)piperidin-3-yl)acetic acid] registered an IC50 not above 250 nM.
`CC[C@@H](c1ccc2c(C(F)F)c(O[C@H]3CC[C@@H](C)CC3)ccc2c1)N1CCC[C@H](CC(=O)O)C1` [Example 93, 2-((3R)-1-((S)-1-(6-((cis-4-Methylcyclohexyl)oxy)-5-(difluoromethyl)naphthalen-2-yl)propyl)piperidin-3-yl)acetic acid] displayed a 50% inhibitory concentration (IC50) not above 100 nM.
Take `CC[C@H](c1ccc2c(C(F)F)c(O[C@H]3CC[C@@H](C)CC3)ccc2c1)N1CCC[C@H](CC(=O)O)C1` [Example 94, 2-((3R)-1-((R)-1-(6-((cis-4-Methylcyclohexyl)oxy)-5-(difluoromethyl)naphthalen-2-yl)propyl)piperidin-3-yl)acetic acid]: the IC50 is not above 100 nM.
For `CC1(C)C(NC(c2ccc3c(C(F)(F)F)c(O[C@H]4CC[C@@H](C(F)(F)F)CC4)ccc3c2)C2CC2)CC1C(=O)O` (stereo partly shown) [Example 44], the IC50 is not above 100 nM.
Compound `O=P(O)(O)Cc1ccc(NCc2ccc3c(C(F)(F)F)c(O[C@H]4CC[C@@H](C(F)(F)F)CC4)ccc3c2)cc1` [Example 68, (4-((5-(trifluoromethyl)-6-(cis-4-(trifluoromethyl)cyclohexyloxy)naphthalene-2-yl)methyl)aminophenyl)methylphosphonic acid] registered an IC50 not above 100 nM.
With `C[C@H](c1ccc2c(C(F)F)c(O[C@H]3CC[C@@H](C)CC3)ccc2c1)N1CCC[C@H](CC(=O)O)C1` [Example 92, 2-((3R)-1-((R)-1-(6-((cis-4-Methylcyclohexyl)oxy)-5-(difluoromethyl)naphthalen-2-yl)ethyl)piperidin-3-yl)acetic acid] the figure was not above 100 nM; with `O=C(O)C1CCN(Cc2ccc3c(C(F)(F)F)c(N[C@H]4CC[C@@H](C(F)(F)F)CC4)ccc3c2)CC1` [Example 22, 1-((5-(trifluoromethyl)-6-((cis-4-(trifluoromethyl)cyclohexyl)amino)naphthalen-2-yl)methyl)piperidine-4-carboxylic acid], not above 250 nM; with `O=C(O)c1ccc(CNC(=O)c2ccc3c(C(F)(F)F)c(O[C@H]4CC[C@@H](C(F)(F)F)CC4)ccc3c2)nc1` [Example 23, 6-((5-(trifluoromethyl)-6-((cis)-4-(trifluoromethyl)cyclohexyloxy)-2-naphthamido)methyl)nicotinic acid], not above 500 nM.

Usually IC50 stands for the concentration that gives 50% inhibition. The low end stands for greater potency, the high end for weaker potency.
